How the values were obtained:
[1] = test system: Hs578T (human triple negative breast cancer cell line); test: CellTiter-Glo Luminescent Cell Viability, combined administration of docetaxel (Experimental Example 3); type: cell-based
Procedure: 10 μM of Fexuprazan and 1 μM of Doxorubicin were administered singly and in combination, respectively. As a comparative group, 10 μM of Vonoprazan was administered singly or in combination with Doxorubicin. At this time, 0.1% DMSO was used as a solvent for each composition. Further, 0.1% DMSO was used as a vehicle control. Each experimental group was repeated twice. Plates treated with the compound at respective concentrations were incubated in a 5% CO2 incubator at 37° C. for 48 hours. […] The reaction was performed at room temperature in a dark room for 10 minutes, and luminescence was measured using a Flexstation3 multi-mode microplate reader. The luciferase enzyme activity, representing the amount of ATP, was measured by a chemiluminescence method according to CellTiter-Glo® Luminescent Cell Viability instructions, and the inhibitory activity was calculated. […]
Hs578T (human triple negative breast cancer cell line) was incubated in a 96 well clear bottom plate and then stabilized for 24 hours. […] After incubating in a 5% CO2 incubator at 37° C. for 48 hours, the luciferase enzyme activity, representing the amount of ATP, was measured by a chemiluminescence method according to CellTiter-Glo® Luminescent Cell Viability instructions, and the inhibitory activity was calculated. The respective results were analyzed using Microsoft Excel, and significance was confirmed through an unpaired t test in Graphpad Prism software.

[2] = test system: Hs578T cell line; test: CellTiter-Glo Luminescent Cell Viability, optimal molar ratio for combination use with Doxorubicin (Experimental Example 2); type: cell-based, human
Procedure: (§1) In order to confirm the anticancer efficacy when Fexuprazan and Doxorubicin were administered in combination, cell proliferation was measured for Hs578T (human triple-negative breast cancer cell line) by a CellTiter-Glo® Luminescent Cell Viability (Promega, Catalog #G7571) method. The above evaluation was performed by a method in which when the luciferase enzyme was activated by ATP leaked from living cells, it reacted with a luciferin substrate, and the enzyme activity at this time was measured to confirm the cell viability.
Specifically, 100 μL of cell culture medium (RPMI medium, 10% FBS, 1% P/S, 4.5 g/L D-Glucose, 2.383 g/L HEPES Buffer, L-Glutamine, 1.5 g/L Sodium Bicarbonate, 110 mg/L Sodium pyruvate) was used and each cancer cell line was prepared in a white clear-bottom 96-well microplate. 10 μM of Fexuprazan and 1 μM of Doxorubicin were administered singly and in combination, respectively. As a comparative group, 10 μM of Vonoprazan was administered singly or in combination with Doxorubicin. At this time, 0.1% DMSO was used as a solvent for each composition. […] The reaction was performed at room temperature in a dark room for 10 minutes, and luminescence was measured using a Flexstation3 multi-mode microplate reader. The luciferase enzyme activity, representing the amount of ATP, was measured by a chemiluminescence method according to CellTiter-Glo® Luminescent Cell Viability instructions, and the inhibitory activity was calculated. The results of each compound were analyzed using Microsoft Excel. […]
In order to confirm the optimal combination ratio of Fexuprazan to Doxorubicin, cell proliferation was measured using a CellTiter-Glo® Luminescent Cell Viability (Promega, Catalog #G7571) method in the same manner as in Experimental Example 1. […] The cells were incubated in a 5% CO2 incubator at 37° C. for 48 hours, the luciferase enzyme activity, representing the amount of ATP, was measured by a chemiluminescence method according to CellTiter-Glo® Luminescent Cell Viability instructions, and the inhibitory activity of the compound according to this purpose was calculated. […]

[3] = test system: Hs578T (human triple-negative breast cancer cell line); test: CellTiter-Glo Luminescent Cell Viability, combined administration of Doxorubicin (Experimental Example 1); type: cell-based; conditions: for antitumor effect in combination with Doxorubicin compared to administration alone / synergistic effect with Doxorubicin: 10 μM with 1 μM Doxorubicin, Table 1 and FIG. 1; for viability at 10 µM: single agent 10.0 μM, no Doxorubicin
Procedure: as §1
Specifically, 100 μL of cell culture medium (RPMI medium, 10% FBS, 1% P/S, 4.5 g/L D-Glucose, 2.383 g/L HEPES Buffer, L-Glutamine, 1.5 g/L Sodium Bicarbonate, 110 mg/L Sodium pyruvate) was used and each cancer cell line was prepared in a white clear-bottom 96-well microplate. 10 μM of Fexuprazan and 1 μM of Doxorubicin were administered singly and in combination, respectively. As a comparative group, 10 μM of Vonoprazan was administered singly or in combination with Doxorubicin. At this time, 0.1% DMSO was used as a solvent for each composition. Further, 0.1% DMSO was used as a vehicle control. Each experimental group was repeated twice. Plates treated with the compound at respective concentrations were incubated in a 5% CO2 incubator at 37° C. for 48 hours. 100 μL/well of the substrate aqueous solution containing luciferin was added to a white clear-bottom 96 well microplate to initiate the enzymatic reaction. The reaction was performed at room temperature in a dark room for 10 minutes, and luminescence was measured using a Flexstation3 multi-mode microplate reader. The luciferase enzyme activity, representing the amount of ATP, was measured by a chemiluminescence method according to CellTiter-Glo® Luminescent Cell Viability instructions, and the inhibitory activity was calculated. The results of each compound were analyzed using Microsoft Excel. Compound concentrations were converted into logarithmic values using GraphPad Prism software and expressed on the graph.

[4] = Homo sapiens, Hs-578T, Doxorubicin 1.0 μM alone, 48 hours, read-out: Relative cell viability (%)
[5] = Homo sapiens, Hs-578T, 48 hours, read-out: Relative cell viability (%)

CC(=O)O[C@@]12CO[C@@H]1C[C@H](O)[C@@]1(C)C(=O)[C@H](O)C3=C(C)[C@@H](OC(=O)[C@H](O)[C@@H](NC(=O)OC(C)(C)C)c4ccccc4)C[C@@](O)([C@@H](OC(=O)c4ccccc4)[C@H]21)C3(C)C [Docetaxel, docetaxel]
viability at 0.001 µM ([1]; Homo sapiens, Hs-578T, Docetaxel 1.0 nM alone, 48 hours, read-out: Relative cell viability (%)): 88.3% | viability at 0.01 µM ([1]; Homo sapiens, Hs-578T, Docetaxel 10.0 nM alone, 48 hours, read-out: Relative cell viability (%)): 49.3% | synergistic effect on the antitumor effect relative to Esomeprazole ([1]; docetaxel 1 nM and 10 nM combined with 10 μM Fexuprazan, Table 3 and FIG. 4): synergistic effect

COc1cccc2c1C(=O)c1c(O)c3c(c(O)c1C2=O)C[C@@](O)(C(=O)CO)C[C@@H]3O[C@H]1C[C@H](N)[C@H](O)[C@H](C)O1 [Doxorubicin]
viability at 1 µM [2, 4]: 50% | viability at 1 µM [3, 4]: 70.6%

CNCc1cn(S(=O)(=O)c2cccc(F)c2)c(-c2ccc(F)cc2F)c1OC [Fexuprazan, 1-(5-(2,4-difluorophenyl)-1-((3-fluorophenyl)sulfonyl)-4-methoxy-1H-pyrrol-3-yl)-N-methylmethanamine]
synergistic effect with Doxorubicin, compared to the combined effect of Esomeprazole ([2]; molar ratio of Doxorubicin and Fexuprazan 1:5 or more): synergistic effects | synergistic effect with Doxorubicin, compared to the combined effect of Esomeprazole ([2]; molar ratios of Doxorubicin and Fexuprazan 1:10 or more): especially superior | antitumor effect in combination with Doxorubicin compared to administration alone / synergistic effect with Doxorubicin [3]: superior antitumor effect | viability at 10 µM [3, 5]: 100%

CNCc1cc(-c2ccccc2F)n(S(=O)(=O)c2cccnc2)c1 [Vonoprazan]
antitumor effect in combination with Doxorubicin compared to administration alone / synergistic effect with Doxorubicin [3]: no synergistic effect | viability at 10 µM [3, 5]: 92.3%
